Source: patent US20200080055A1, “COMPOSITIONS AND METHODS FOR GENERATING HAIR CELLS BY UPREGULATING PI3K” (Frequency Therapeutics, Inc., priority 2018, published 2020)
Entries after “also recorded” stand apart in the source; their conditions may differ.

How the values were obtained:
[1] = system: cochlear Lgr5 progenitor cells; assay: Lgr5+ assay: expansion and enrichment of cochlear Lgr5 progenitor cells in 3D culture; format: cell-based, mouse
Description: “Stem Cell Proliferation Assay” as used herein is an assay to determine the capacity for agent(s) to induce the creation of stem cells from a starting cell population. In an exemplary Stem Cell Proliferation Assay, the number of cells for an initial cell population is harvested from a Lgr5-GFP mouse such as a B6.129P2-Lgr5tm1(cre/ERT2)Cle/J mouse (also known as Lgr5-EGFP-IRES-creERT2 or Lgr5-GFP mouse, Jackson Lab Stock No: 008875) between the age of 0 to 5 days, by isolating the organ of Corti sensory epithelium and dissociating the epithelium into single cells. Approximately 5000 cells are entrapped in 40 μl of culture substrate (for example: Matrigel (Corning, Growth Factor Reduced)) and placed at the center of wells in a 24-well plate with 500 μl of an appropriate culture media, growth factors and agent being tested. Appropriate culture media and growth factors include Advanced DMEM/F12 with media Supplements (1×N2, 1×B27, 2 mM Glutamax, 10 mM HEPES, 1 mM N-acetylcysteine, and 100 U/ml Penicillin/[…] Streptomycin) and growth factors (50 ng/ml EGF, 50 ng/ml bFGF, and 50 ng/ml IGF-1) as well as the agent(s) being assessed are added into each well. Cells are cultured for 10 days in a standard cell culture incubator at 37° C. and 5% CO2, with media change every 2 days. The number of Lgr5+ cells is quantified by counting the number of cells identified as Lgr5+ in an In Vitro Lgr5 activity assay. The fraction of cells that are Lgr5+ is quantified by dividing the number of cells identified as Lgr5+ in a cell population by the total number of cells present in the cell population. The number of hair cells in a population may be measured by staining with hair cell marker (e.g., MyosinVIIa), or using an endogenous reporter of hair cell genes (e.g., Pou4f3-GFP, Atoh1-nGFP) and analyzing using flow cytometry. The fraction of cells that are hair cells is quantified by dividing the number of cells identified as hair cells in a cell population by the total number of cells present in the cell population. Gene and/or protein expression and/or activity is measured in this assay using methods known in the art such as by PCR, Nanostring, immunostaining, RNAseq, RNA hybridization, or Western blot analysis.
Neonatal Lgr5-EGFP-IRES-Cre-ER mice (The Jackson Laboratory, strain 8875) were used to analyze the effects of small molecules on cochlear stem cell expansion (see Barker et al., Nature 449, 1003-7 (2007). This strain allowed for visualization and quantification of EGFP cells.
All animal studies were conducted under an approved institutional protocol per National Institutes of Health guidelines. Using neonatal animals, cochleae were dissected and the organ of Corti (sensory epithelium) was separated from the stria vascularis (ion transport epithelium) and the modiolus (nerve tissue). Epithelia were then collected and treated with TrypLE for 15-20 minutes to obtain single cells. The cells were then filtered ([…]) and suspended in a Matrigel (Corning) dome for 3D culture seeded at 0.5 cochlea per well.
Expansion of Lgr5 Cells: Cells were cultured in a 3D system and bathed in a serum free 1:1 mixture of DMEM and F12, supplemented with Glutamax (GIBCO), N2, B27 (Invitrogen), EGF (50 ng/mL; Chemicon), bFGF (50 ng/mL; Chemicon), IGF-1 (50 ng/mL; Chemicon), and small molecules for seven days. Media was changed every other day. Treatments were run in triplicate or quadruplicate.
Lgr5 cells were quantified after 7-10 days. Cell colonies were dissociated into single cells using TrypLE. The cells were then stained with propidium iodide (PI) and analyzed using a flow cytometer to count Lgr5-EGFP cells. The percentage of viable Lgr5 cells was plotted against the concentration in GraphPad Prism.
Organ of Corti are dissected from Lgr5 GFP+ mice and dissociated as single cells as described above. Background media contains the same supplements and growth factors at the same concentrations as described above. […]

HDAC = conditions: Table 5; cited from earlier work

## CC(C)(C)C(=O)Nc1ccc2c(c1)C(=O)C(=O)c1ccccc1-2 [SF1670]
[1]; SF1670 0.1 uM added to CHIR
  enhancement of CHIR-elicited expansion and enrichment of cochlear Lgr5 progenitor cells: further enhanced

## VO-Ohpic
[1]; VO-Ohpic 3 uM added to CHIR
  enhancement of CHIR-elicited expansion and enrichment of cochlear Lgr5 progenitor cells: enhanced

## CCn1cc(C(=O)O)c(=O)c2c(N)c(F)c(NC3CCCCC3)cc21 [AS1842856]
[1]; AS1842856 425 nM combined with VPA 1 mM
  enrichment of Lgr5 cells (percentage): enriched according to percentage
[1]; AS1842856 425 nM in background of EFI
  expansion of cochlear Lgr5+ progenitor cells in culture: elicits the expansion
[1]; AS1842856 concentration series in background of EFI
  LGR5+ cell growth and enrichment / expansion of cochlear progenitor cells: concentration-dependent effects; also recorded: enhances expansion of cochlear progenitor cells

## O=C([O-])CCCc1ccccc1.[Na+] [Na phenylbutyrate]
HDAC
  Class selectivity: Class I >

## Cc1c[nH]c(-c2cnc(NCCNc3ccc(C#N)cn3)nc2-c2ccc(Cl)cc2Cl)n1 [CHIR99021]
[1]; CHIR alone (GSK3 inhibition)
  expansion and enrichment of cochlear Lgr5 progenitor cells in culture: elicits the expansion and enrichment
